In publication PMC11876671, “Investigating blood–brain barrier penetration and neurotoxicity of natural products for central nervous system drug development” (Scientific Reports, 2025):
Where a SMILES comes first, the peptide text is derived from it. [ ]: non-standard residue; d: D form. The star is where a group is joined. X2 = CCC(C)(C)NCCN(CCNC(C)(C)/C(C)=N/O)CCN*; Tyr(3-I) = N[C@@H](Cc1ccc(O)c(I)c1)C(=O)O

Assay: in vitro
Settings: PAMPA, PAMPA-BBB Pe

Structure (SMILES) | Papp [×10⁻⁶ cm/s]
C=C(C)[C@@H]1CCC2=CCC[C@@H](C)[C@]2(C)C1 | 18
COc1ccc2[nH]c3c(c2c1)CCNC3C (centres unmarked) [ADRENOGLOMERULOTROPIN] | 23

Same assay, conditions: PAMPA, PAMPA-BBB Pe(10^-6 cm/sec)

Structure (SMILES) | Papp [×10⁻⁶ cm/s]
CNc1ccccc1C(=O)O | 1.5
CO[C@@H]1[C@H](O)[C@@H](CO)O[C@H]1n1cnc2c(=O)[nH]c(N)nc21 [2'-O-METHYLGUANOSINE] | < 1
COc1ccc(/C=C/C(=O)O)cc1OC [3,4-DIMETHOXYCINNAMIC ACID] | < 1
Nc1c(O)cccc1C(=O)CC(N)C(=O)O (centres unmarked) [3-HYDROXYKYNURENINE] | < 1
CC(=O)O[C@@]12CO[C@@H]1C[C@H](O)[C@@]1(C)C(=O)[C@H](O)C3=C(C)[C@@H](O)C[C@@](O)([C@@H](OC(=O)c4ccccc4)[C@H]21)C3(C)C [10-DEACETYL BACCATIN III] | < 1
CC(C)C/C=C(\C=O)c1ccccc1 [(Z)-5-METHYL-2-PHENYL-HEX-2-ENAL] | < 1
CC1=C(C)C(=O)C(CC[C@](C)(O)CCC[C@H](C)CCC[C@H](C)CCCC(C)C)=C(C)C1=O [.ALPHA.-TOCOPHERYLQUINONE] | 7.2

Same assay, conditions: PAMPA, PAMPA-BBB Pe(10^-6 cm/sec), Table S3: compounds exhibiting low PAMPA-BBB permeability

Structure (SMILES) | Papp [×10⁻⁶ cm/s]
CN(CCCC(=O)c1cccnc1)N=O | < 1
CC1NC(C(=O)O)Cc2c1[nH]c1ccccc21 (centres unmarked) | < 1
CCNc1nc(N)nc(Cl)n1 | 1.1
CC1CC(C)C(=O)C1=O (centres unmarked) | 2.7
NC1C=CC=C(C(=O)O)C1 (centres unmarked) | < 1
O=C/C=C/c1ccccc1 | < 1
C=C/C(C)=C/C/C=C(\C)CCC=C(C)C | < 1
NC(Cc1cc(O)c(O)cc1O)C(=O)O (racemic) [2,4,5-TRIHYDROXY-DL-PHENYLALANINE] | 9.3
O=C(OC[C@H]1O[C@@H](OC(=O)c2cc(O)c(O)c(O)c2)[C@H](OC(=O)c2cc(O)c(O)c(O)c2)[C@@H](OC(=O)c2cc(O)c(O)c(O)c2)[C@@H]1O)c1cc(O)c(O)c(O)c1 [1,2,3,6-TETRA-O-GALLOYL-.BETA.-D-GLUCOSE] | < 1
COC1=C(OC)C(=O)c2ccccc2C1=O [2,3-DIMETHOXYNAPHTHOQUINONE] | 4.7
COC1=CC(=O)C=C(OC)C1=O [2,6-DIMETHOXY-1,4-BENZOQUINONE] | < 1
Nc1nc(Cl)nc2c1ncn2[C@@H]1O[C@H](CO)C(O)[C@H]1O (some centres unmarked) [2-CHLOROADENOSINE] | < 1
O=C(O)c1ccco1 [2-FURANOIC ACID] | < 1
Nc1ccn([C@@H]2O[C@H](CO)[C@@H](OP(=O)(O)O)[C@H]2O)c(=O)n1 [3'-CMP] | < 1
COc1ccc(C(=O)O)cc1OC [3,4-DIMETHOXYBENZOIC ACID] | < 1
O=C(O)/C=C/c1ccc2c(c1)OCO2 [3,4-METHYLENEDIOXYCINNAMIC ACID] | < 1
Cn1cnc(N)c2ncnc1-2 [3-METHYL-6-AMINOPURINE] | < 1
COc1ccc(O[C@@H]2O[C@H](CO)[C@H](O)[C@H](O)[C@H]2O)cc1 [4-METHOXYPHENYL .BETA.-D-GLUCOSIDE] | 1.3
COc1ccc2[nH]cc(CC(=O)O)c2c1 [5-METHOXYIN[…]] | < 1
COc1cc2c(CCNC(C)=O)c[nH]c2cc1O [6-HYDROXYMELATONIN] | 2.8
CC(=O)OCC1=C(C(=O)O)N2C(=O)C(N)C2SC1 (centres unmarked) [7-Aminocephalosporanic acid] | < 1
CN(Cc1nc2c(N)nc(N)nc2nc1O)c1ccc(C(=O)N[C@@H](CCC(=O)O)C(=O)O)cc1 [7-HYDROXYMETHOTREXATE] | < 1
CC1(C)CCC2=C(O1)c1ccccc1C(=O)C2=O [.BETA.-LAPACHONE] | < 1
NC(=O)c1ncn([C@@H]2O[C@H](CO)[C@@H](O)[C@H]2O)c1N [ACADESINE] | < 1
Nc1ncnc2c1ncn2[C@@H]1O[C@H](CO)[C@@H](O)[C@H]1O [ADENOSINE] | < 1
O=C(OCC1=C[C@@H](O)[C@@H]2C=CO[C@@H](O[C@@H]3O[C@H](CO)[C@@H](O)[C@H](O)[C@H]3O)[C@H]12)c1ccc(O)cc1 [AGNUSIDE] | < 1
O=C1c2c(O)cccc2[C@H]([C@@H]2O[C@H](CO)[C@@H](O)[C@H](O)[C@H]2O)c2cc(CO)cc(O)c21 [ALOIN A] | 5.4

Same assay, conditions: PAMPA, PAMPA-BBB Pe, Table S2: compounds exhibiting moderate to high PAMPA-BBB permeability

Structure (SMILES) | Papp [×10⁻⁶ cm/s]
O=C(/C=C/c1ccccc1)c1ccc(O)cc1O | 223
CCCOc1ccc2[nH]cc(C3=CCNCC3)c2n1 | 18
O=c1cc(N2CCOCC2)oc2c(-c3cccc4c3sc3ccccc34)cccc12 | 102
COc1ccc(-c2oc3cc(OC)c(OC)c(OC)c3c(=O)c2OC)cc1OC | 120
COc1cccc(C=O)c1OC | 107
CCC(C)(C)NCCN(CCNC(=O)CNC(=O)[C@H](CCCCN)NC(=O)[C@H](CC(C)C)NC(=O)[C@H](CC(C)C)NC(=O)[C@@H](NC(=O)[C@H](Cc1ccc(O)c(I)c1)NC(=O)[C@@H]1CCCN1C(=O)[C@H](CO)NC(=O)[C@@H](NC(=O)[C@H](CCC(N)=O)NC(=O)[C@H](CCC(=O)O)NC(=O)[C@H](CCC(N)=O)NC(=O)[C@H](CC(N)=O)NC(C)=O)C(C)C)[C@@H](C)O)CCNC(C)(C)/C(C)=N/O (Ac-NQEQVSP[Tyr(3-I)]TLLKG-X2) | 155
CC(=O)/C=C/C1C(C)=CCC(C)C1(C)C (mixture of isomers) [DL-TRANS-.ALPHA.-IRONE] | 34
S=c1ccss1 [1,2-DITHIOLE-3-THIONE] | 98
COc1ccccc1/C=C/C=O [2'-METHOXYCINNAMALDEHYDE] | 122
COc1cccc(OC)c1C(=O)O [2,6-DIMETHOXYBENZOIC ACID] | 24
CC(=O)c1c(O)cccc1O [2-ACETYLRESORCINOL] | 45
O=Cc1cc2ccccc2o1 [2-FORMYLBENZOFURAN] | 154
CNC(=O)Nc1ccc(Cl)c(Cl)c1 [3,4-DCPMU] | 115
COc1cc(C)cc(O)c1 [3-HYDROXY-5-METHOXYTOLUENE] | 50
CCCCc1ccc(O)cc1 [4-BUTYLPHENOL] | 116
CCc1ccc(O)c(OC)c1 [4-ETHYLGUAIACOL] | 116
COc1ccc2[nH]c3c(c2c1)CCN=C3C [6-METHOXYHARMALANE] | 49
CCCCCc1cccc(=O)o1 [6-PENTYL-2H-PYRAN-2-ONE] | 52
COc1ccc2ccc(=O)oc2c1 [7-METHOXYCOUMARIN] | 77
C=C1CC[C@H](O)C/C1=C/C=C1\CCC[C@]2(C)[C@@H]([C@H](C)CCC(O)C(C)(C)O)CC[C@@H]12 (some centres unmarked) [24,25-DIHYDROXYVITAMIN D3] | 78
COc1cc(C2c3cc4c(c(O)c3CC3COC(=O)C32)OCO4)cc(OC)c1O (stereo not drawn) [.ALPHA.-PELTATIN A] | 14
Cc1ccc2c(c1)C(=O)c1ccccc1C2=O [.BETA.-METHYLANTHRAQUINONE] | 26
CC[C@H](C)[C@H]1O[C@]2(C=C[C@@H]1C)C[C@@H]1C[C@@H](C/C=C(\C)[C@@H](O[C@H]3C[C@H](OC)[C@@H](O[C@H]4C[C@H](OC)[C@@H](O)[C@H](C)O4)[C@H](C)O3)[C@@H](C)/C=C/C=C3\CO[C@@H]4[C@H](O)C(C)=C[C@@H](C(=O)O1)[C@]34O)O2 [ABAMECTIN B1A] | 35
C[C@]12CCC(=O)C=C1CC[C@@H]1[C@@H]2C(=O)C[C@]2(C)C(=O)CC[C@@H]12 [ADRENOSTERONE] | 41
CC[C@@]1(O)C[C@H](O[C@H]2C[C@H](N(C)C)[C@H](O)[C@H](C)O2)c2c(cc3c(c2O)C(=O)c2c(O)cccc2C3=O)[C@H]1C(=O)OC [AKLAVINE] | 116
Cc1ccnc(N)c1 [AMINOPICOLINE] | 13
